Experimental data from ChEMBL document CHEMBL1201862, “PubChem BioAssay data set” (2004).
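Method: 48-hour compound exposure of cells in 96-well plates, five concentrations, linear interpolation of endpoints. GI50 is the concentration that inhibits growth by half.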 The source made the active and inactive calls. Cut-off read from the data, not from the text of the source: active = GI50 up to about 1.1 µM and inactive = higher.

How the values were obtained:
Assay in all cases: DTP human tumour cell line panel, 48 h
[1] = system: RPMI-8226
[2] = system: HCT-15
[3] = system: CAKI-1
[4] = system: BT-549
[5] = system: UO-31
[6] = system: SN12C
[7] = system: NCI-H23
[8] = system: OVCAR-3
[9] = system: SF-295
[10] = system: CCRF-CEM
[11] = system: OVCAR-4
[12] = system: PC-3
[13] = system: NCI-H522
[14] = system: SNB-75
[15] = system: SK-MEL-2
[16] = system: HL-60
[17] = system: M14
[18] = system: SW-620
[19] = system: MDA-N
[20] = system: NCI-H226
[21] = system: Malme-3M
[22] = system: KM12
[23] = system: U-251
[24] = system: TK-10
[25] = system: ACHN
[26] = system: SK-MEL-28
[27] = system: OVCAR-5
[28] = system: LOX IMVI
[29] = system: SK-OV-3
[30] = system: A549
[31] = system: SF-539
[32] = system: RXF 393
[33] = system: SNB-19
[34] = system: UACC-257
[35] = system: MCF7
[36] = system: HCC 2998
[37] = system: SR
[38] = system: EKVX
[39] = system: SF-268
[40] = system: NCI/ADR-RES
[41] = system: MDA-MB-435
[42] = system: SK-MEL-5
[43] = system: COLO 205
[44] = system: DU-145
[45] = system: HCT-116
[46] = system: T47D
[47] = system: OVCAR-8
[48] = system: UACC-62
[49] = system: Hs-578T
[50] = system: 786-0
[51] = system: HT-29
[52] = system: MOLT-4
[53] = system: HOP-62
[54] = system: NCI-H460
[55] = system: K562
[56] = system: MDA-MB-231
[57] = system: A498
[58] = system: IGROV-1
[59] = system: HOP-92

Compound: CC1(C(=O)O)CCC2(C)CCC3(C)C(=CC(=O)C4C5(C)CCC(O)C(C)(C)C5CCC43C)C2C1 (stereo not given)
- GI50 [1]: > 10 µM (inactive)
- GI50 [2]: 34.8 µM
- GI50 [3]: 24.4 µM (inactive)
- GI50 [4]: 11.7 µM (inactive)
- GI50 [5]: 23.6 µM (inactive)
- GI50 [6]: 41.8 µM (inactive)
- GI50 [7]: 21.2 µM (inactive)
- GI50 [8]: 19.3 µM (inactive)
- GI50 [9]: 26.5 µM (inactive)
- GI50 [10]: 30.9 µM (inactive)
- GI50 [11]: 42.8 µM (inactive)
- GI50 [12]: 36.1 µM (inactive)
- GI50 [13]: 22.7 µM (inactive)
- GI50 [14]: 33.8 µM (inactive)
- GI50 [15]: 21.8 µM (inactive)
- GI50 [16]: 24.6 µM (inactive)
- GI50 [17]: 36.3 µM (inactive)
- GI50 [18]: 37.5 µM (inactive)
- GI50 [19]: 38.7 µM (inactive)
- GI50 [20]: 25.8 µM (inactive)
- GI50 [21]: > 100 µM (inactive)
- GI50 [22]: 18.3 µM (inactive)
- GI50 [23]: 43.1 µM (inactive)
- GI50 [24]: 35.7 µM (inactive)
- GI50 [25]: 22.6 µM (inactive)
- GI50 [26]: 22.1 µM (inactive)
- GI50 [27]: 29.6 µM (inactive)
- GI50 [28]: 22.6 µM (inactive)
- GI50 [29]: 43.4 µM (inactive)
- GI50 [30]: 40.3 µM (inactive)
- GI50 [31]: 17.6 µM (inactive)
- GI50 [32]: 36.1 µM (inactive)
- GI50 [33]: 20.6 µM (inactive)
- GI50 [34]: 33.9 µM (inactive)
- GI50 [35]: 50.2 µM (inactive)
- GI50 [36]: 23.1 µM (inactive)
- GI50 [37]: 24.3 µM (inactive)
- GI50 [38]: 34.9 µM (inactive)
- GI50 [39]: 27.4 µM (inactive)
- GI50 [40]: 46 µM (inactive)
- GI50 [41]: 35.6 µM (inactive)
- GI50 [42]: 24.4 µM (inactive)
- GI50 [43]: 38.8 µM (inactive)
- GI50 [44]: 29.6 µM (inactive)
- GI50 [45]: 23.4 µM (inactive)
- GI50 [46]: 30.8 µM (inactive)
- GI50 [47]: 43.8 µM (inactive)
- GI50 [48]: 21 µM (inactive)
- GI50 [49]: 28.6 µM (inactive)
- GI50 [50]: 42.1 µM (inactive)
- GI50 [51]: 20.2 µM (inactive)
- GI50 [52]: 36.2 µM (inactive)

Compound: CC(C)(C)C1CCC2c3c([nH]c4ccccc34)C3C(=O)N(c4ccc(C#N)cc4)C(=O)C3C2C1 (stereo not given)
- GI50 [1]: 21.3 µM (inactive)
- GI50 [2]: 12.1 µM
- GI50 [3]: 12.3 µM (inactive)
- GI50 [4]: 15.7 µM (inactive)
- GI50 [53]: 15.7 µM (inactive)
- GI50 [5]: 7.36 µM (inactive)
- GI50 [6]: 9.59 µM (inactive)
- GI50 [7]: 6.61 µM (inactive)
- GI50 [8]: 16.4 µM (inactive)
- GI50 [9]: 29.2 µM (inactive)
- GI50 [10]: 0.0108 µM (active)
- GI50 [12]: 3.66 µM (inactive)
- GI50 [15]: 13.1 µM (inactive)
- GI50 [16]: 3.42 µM (inactive)
- GI50 [54]: 3.81 µM (inactive)
- GI50 [17]: 16.1 µM (inactive)
- GI50 [18]: 8.13 µM (inactive)
- GI50 [19]: 11.9 µM (inactive)
- GI50 [55]: 6.22 µM (inactive)
- GI50 [20]: 20 µM (inactive)
- GI50 [21]: 17.3 µM (inactive)
- GI50 [56]: 15.3 µM (inactive)
- GI50 [23]: 15.8 µM (inactive)
- GI50 [24]: 20.3 µM (inactive)
- GI50 [25]: 15.1 µM (inactive)
- GI50 [26]: 14 µM (inactive)
- GI50 [27]: 20.7 µM (inactive)
- GI50 [28]: 13.2 µM (inactive)
- GI50 [29]: 24.4 µM (inactive)
- GI50 [57]: 13.7 µM (inactive)
- GI50 [30]: 8.43 µM (inactive)
- GI50 [31]: 18.7 µM (inactive)
- GI50 [32]: 3.21 µM (inactive)
- GI50 [33]: 34.4 µM (inactive)
- GI50 [34]: 20.2 µM (inactive)
- GI50 [58]: 16.4 µM (inactive)
- GI50 [35]: 29.5 µM (inactive)
- GI50 [36]: 3.25 µM (inactive)
- GI50 [37]: 6.47 µM (inactive)
- GI50 [38]: 13.8 µM (inactive)
- GI50 [39]: 11 µM (inactive)
- GI50 [40]: 17.6 µM (inactive)
- GI50 [41]: 26.3 µM (inactive)
- GI50 [42]: 12.9 µM (inactive)
- GI50 [43]: 21.4 µM (inactive)
- GI50 [44]: 13.6 µM (inactive)
- GI50 [45]: 5.43 µM (inactive)
- GI50 [47]: 14.5 µM (inactive)
- GI50 [59]: 4.54 µM (inactive)
- GI50 [48]: 5.81 µM (inactive)
- GI50 [49]: 11.2 µM (inactive)
- GI50 [50]: 12 µM (inactive)
- GI50 [51]: 3.78 µM (inactive)
- GI50 [52]: 0.678 µM (active)

Compound: O=c1[nH]nc(-c2ccccc2)n1/N=C/c1ccco1
- GI50 [2]: > 100 µM
- GI50 [3]: > 100 µM (inactive)
- GI50 [4]: 32.6 µM (inactive)
- GI50 [53]: > 100 µM (inactive)
- GI50 [5]: > 100 µM (inactive)
- GI50 [6]: 29.2 µM (inactive)
- GI50 [7]: > 100 µM (inactive)
- GI50 [8]: > 100 µM (inactive)
- GI50 [9]: > 100 µM (inactive)
- GI50 [10]: > 100 µM (inactive)
- GI50 [11]: 30.1 µM (inactive)
- GI50 [12]: > 100 µM (inactive)
- GI50 [13]: > 100 µM (inactive)
- GI50 [14]: > 100 µM (inactive)
- GI50 [15]: > 100 µM (inactive)
- GI50 [16]: > 100 µM (inactive)
- GI50 [54]: > 100 µM (inactive)
- GI50 [17]: > 100 µM (inactive)
- GI50 [18]: > 100 µM (inactive)
- GI50 [19]: > 100 µM (inactive)
- GI50 [21]: > 100 µM (inactive)
- GI50 [22]: > 100 µM (inactive)
- GI50 [23]: > 100 µM (inactive)
- GI50 [24]: > 100 µM (inactive)
- GI50 [25]: > 100 µM (inactive)
- GI50 [26]: > 100 µM (inactive)
- GI50 [27]: > 100 µM (inactive)
- GI50 [28]: > 100 µM (inactive)
- GI50 [29]: > 100 µM (inactive)
- GI50 [57]: > 100 µM (inactive)
- GI50 [30]: > 100 µM (inactive)
- GI50 [31]: > 100 µM (inactive)
- GI50 [32]: > 100 µM (inactive)
- GI50 [33]: > 100 µM (inactive)
- GI50 [34]: > 100 µM (inactive)
- GI50 [58]: > 100 µM (inactive)
- GI50 [35]: 0.0719 µM (active)
- GI50 [37]: > 100 µM (inactive)
- GI50 [38]: > 100 µM (inactive)
- GI50 [39]: > 100 µM (inactive)
- GI50 [40]: > 100 µM (inactive)
- GI50 [41]: > 100 µM (inactive)
- GI50 [42]: > 100 µM (inactive)
- GI50 [43]: > 100 µM (inactive)
- GI50 [44]: > 100 µM (inactive)
- GI50 [45]: > 100 µM (inactive)
- GI50 [46]: > 100 µM (inactive)
- GI50 [47]: > 100 µM (inactive)
- GI50 [59]: > 100 µM (inactive)
- GI50 [48]: 83.2 µM (inactive)
- GI50 [49]: > 100 µM (inactive)
- GI50 [50]: > 100 µM (inactive)
- GI50 [51]: > 100 µM (inactive)
- GI50 [52]: > 100 µM (inactive)
